This note sets out measurements from patent US10660877B2 (BRISTOL-MYERS SQUIBB COMPANY, priority 2016, dated 2020).

Assay [1] addresses human TLR8 (Homo sapiens (Human), UniProt Q9NR97). Nature of the assay: TLR8 inhibition reporter assay (HEK-Blue cells, SEAP reporter, R848 stimulation).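 Note: compounds tested from 0.05 nM to 50 µM, 22 h at 37 °C, SEAP measured with HEK-Blue Detection, inhibition relative to agonist plus DMSO versus a known inhibitor.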 Background: A reporter such as luciferase makes a cellular process visible.
The target of assay [2] is human TLR9 (Homo sapiens (Human), UniProt Q9NR96). The experiment in a line: TLR9 inhibition reporter assay (HEK-Blue cells, SEAP reporter, ODN2006 stimulation).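 Note: compounds tested over 0.05 nM to 50 µM, 22 h incubation, inhibition taken as SEAP signal drop from agonist plus DMSO wells toward a known inhibitor control.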
human TLR9, sequence (Q9NR96 26-1032): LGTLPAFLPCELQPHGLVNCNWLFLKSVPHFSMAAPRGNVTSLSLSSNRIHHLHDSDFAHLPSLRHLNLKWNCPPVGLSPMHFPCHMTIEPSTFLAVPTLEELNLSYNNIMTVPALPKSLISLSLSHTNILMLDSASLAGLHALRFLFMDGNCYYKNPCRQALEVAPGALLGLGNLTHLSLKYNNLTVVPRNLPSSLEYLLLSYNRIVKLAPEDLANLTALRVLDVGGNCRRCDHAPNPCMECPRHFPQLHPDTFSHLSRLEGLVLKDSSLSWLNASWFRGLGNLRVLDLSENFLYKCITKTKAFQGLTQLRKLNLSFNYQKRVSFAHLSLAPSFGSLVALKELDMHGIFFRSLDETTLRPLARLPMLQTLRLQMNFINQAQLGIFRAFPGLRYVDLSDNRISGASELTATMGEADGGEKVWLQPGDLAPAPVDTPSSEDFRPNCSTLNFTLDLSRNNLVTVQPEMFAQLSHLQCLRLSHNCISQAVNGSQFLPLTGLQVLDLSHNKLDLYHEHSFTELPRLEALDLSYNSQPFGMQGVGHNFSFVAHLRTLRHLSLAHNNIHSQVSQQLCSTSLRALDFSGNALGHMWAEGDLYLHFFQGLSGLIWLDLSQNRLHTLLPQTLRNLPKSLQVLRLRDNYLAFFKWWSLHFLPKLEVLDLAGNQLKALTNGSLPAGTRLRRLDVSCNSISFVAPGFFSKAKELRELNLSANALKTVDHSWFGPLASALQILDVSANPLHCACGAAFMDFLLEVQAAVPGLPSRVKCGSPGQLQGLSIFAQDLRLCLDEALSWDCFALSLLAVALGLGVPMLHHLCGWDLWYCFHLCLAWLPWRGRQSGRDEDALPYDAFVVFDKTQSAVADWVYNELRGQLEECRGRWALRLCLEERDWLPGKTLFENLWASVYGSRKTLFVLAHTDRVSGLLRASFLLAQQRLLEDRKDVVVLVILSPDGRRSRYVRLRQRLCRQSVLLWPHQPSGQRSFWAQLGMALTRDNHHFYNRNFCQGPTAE
In assay [3] the target is human TLR7 (Homo sapiens (Human), UniProt Q9NYK1). Nature of the assay: TLR7 inhibition reporter assay (HEK-Blue cells, SEAP reporter, gardiquimod stimulation). In kind it is cell-based. As to conditions: HEK-Blue cells overexpressing human TLR7, gardiquimod 7.5 μM.
human TLR7, sequence (Q9NYK1 27-1049): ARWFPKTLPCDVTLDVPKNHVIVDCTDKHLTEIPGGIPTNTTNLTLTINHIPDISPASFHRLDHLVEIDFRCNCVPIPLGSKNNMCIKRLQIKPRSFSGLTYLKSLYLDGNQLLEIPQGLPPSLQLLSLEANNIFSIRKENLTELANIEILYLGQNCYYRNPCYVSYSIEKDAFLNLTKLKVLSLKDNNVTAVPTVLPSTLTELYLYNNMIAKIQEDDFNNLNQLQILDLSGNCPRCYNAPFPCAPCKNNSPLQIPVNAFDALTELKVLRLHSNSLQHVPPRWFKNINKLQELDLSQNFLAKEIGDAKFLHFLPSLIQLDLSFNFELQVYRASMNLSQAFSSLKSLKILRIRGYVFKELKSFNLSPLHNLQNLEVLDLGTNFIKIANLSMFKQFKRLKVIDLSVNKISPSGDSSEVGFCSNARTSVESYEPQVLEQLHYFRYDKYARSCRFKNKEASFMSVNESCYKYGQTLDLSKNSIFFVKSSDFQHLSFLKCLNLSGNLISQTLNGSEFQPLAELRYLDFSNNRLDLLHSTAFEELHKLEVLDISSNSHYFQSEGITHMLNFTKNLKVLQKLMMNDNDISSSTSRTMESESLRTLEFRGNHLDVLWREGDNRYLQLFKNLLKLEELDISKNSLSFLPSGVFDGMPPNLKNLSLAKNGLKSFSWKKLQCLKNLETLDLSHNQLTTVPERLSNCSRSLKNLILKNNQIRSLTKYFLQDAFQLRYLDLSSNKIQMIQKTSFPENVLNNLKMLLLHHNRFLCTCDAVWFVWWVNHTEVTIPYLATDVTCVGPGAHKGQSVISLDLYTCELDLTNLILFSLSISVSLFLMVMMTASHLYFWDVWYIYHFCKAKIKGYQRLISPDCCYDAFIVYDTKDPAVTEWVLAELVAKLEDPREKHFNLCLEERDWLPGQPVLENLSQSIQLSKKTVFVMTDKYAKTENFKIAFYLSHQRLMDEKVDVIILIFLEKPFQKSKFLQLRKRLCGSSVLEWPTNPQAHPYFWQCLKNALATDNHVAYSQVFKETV
[4] abbreviates: read-out: TLR8 IC50, HEK-Blue cells overexpressing human TLR8, R848 15.9 μM.
[5] abbreviates: read-out: TLR9 IC50, HEK-Blue cells overexpressing human TLR9, ODN2006 5 nM.

Read-outs that look alike come from different tables or passages of the source.

human TLR8, sequence (Q9NR97 27-1041): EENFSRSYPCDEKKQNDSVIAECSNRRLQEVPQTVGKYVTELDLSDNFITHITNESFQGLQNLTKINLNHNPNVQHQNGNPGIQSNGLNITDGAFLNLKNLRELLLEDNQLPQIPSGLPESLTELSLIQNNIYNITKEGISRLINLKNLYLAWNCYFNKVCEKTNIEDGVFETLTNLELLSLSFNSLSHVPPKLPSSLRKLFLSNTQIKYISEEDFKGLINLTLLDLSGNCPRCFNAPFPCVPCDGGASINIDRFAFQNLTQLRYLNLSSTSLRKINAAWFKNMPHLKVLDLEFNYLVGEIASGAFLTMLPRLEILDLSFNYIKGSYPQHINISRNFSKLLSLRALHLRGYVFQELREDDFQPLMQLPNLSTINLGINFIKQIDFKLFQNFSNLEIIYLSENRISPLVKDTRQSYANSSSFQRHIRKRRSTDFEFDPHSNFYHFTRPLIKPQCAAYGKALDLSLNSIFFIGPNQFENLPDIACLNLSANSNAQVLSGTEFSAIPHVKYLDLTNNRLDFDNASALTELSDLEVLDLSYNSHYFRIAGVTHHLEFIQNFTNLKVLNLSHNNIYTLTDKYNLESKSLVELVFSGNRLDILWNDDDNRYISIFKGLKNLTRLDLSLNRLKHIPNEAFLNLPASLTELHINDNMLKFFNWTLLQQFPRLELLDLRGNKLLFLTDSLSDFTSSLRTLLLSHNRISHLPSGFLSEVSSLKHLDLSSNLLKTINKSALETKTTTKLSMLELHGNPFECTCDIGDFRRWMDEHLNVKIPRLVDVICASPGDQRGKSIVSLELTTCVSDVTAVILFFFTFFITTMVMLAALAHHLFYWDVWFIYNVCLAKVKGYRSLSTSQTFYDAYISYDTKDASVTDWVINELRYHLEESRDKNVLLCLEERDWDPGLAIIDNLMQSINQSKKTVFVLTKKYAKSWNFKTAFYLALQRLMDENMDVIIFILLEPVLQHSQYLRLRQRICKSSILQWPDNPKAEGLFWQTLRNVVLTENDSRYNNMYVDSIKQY

One may read the IC50 as the concentration that gives 50% inhibition. On to `Cc1cc(-c2[nH]c3ccc(C4CCN(Cc5c[nH]cn5)CC4)cc3c2C(C)C)cc(C)n1` [Example 425, 5-(1-((1H-imidazol-4-yl)methyl)piperidin-4-yl)-2-(2,6-dimethylpyridin-4-yl)-3-isopropyl-1H-indole], for which the IC50 in assay [1] (setting [4]) came to 2.5 nM; in assay [2] (setting [5]), 143 nM; in assay [3], 3.7 nM.
As for `Cc1cc(-c2[nH]c3ccc(C4CCN(C(=O)CN(C)C)CC4)cc3c2C(C)C)cc(C)n1` [Example 98, 2-(dimethylamino)-1-(4-(2-(2,6-dimethylpyridin-4-yl)-3-isopropyl-1H-indol-5-yl)piperidin-1-yl)ethan-1-one], the IC50 in assay [1] (setting [4]) was 8 nM; in assay [2] (setting [5]), 579 nM; in assay [3], 1.6 nM.
As to `CCOC(=O)N1CCC(c2ccc3[nH]c(-c4ccnc(C)c4)c(C(C)C)c3c2)CC1` [Example 560, ethyl 4-(3-isopropyl-2-(2-methylpyridin-4-yl)-1H-indol-5-yl)piperidine-1-carboxylate], the IC50 stood at 607 nM in assay [1] (setting [4]), 10400 nM in assay [2] (setting [5]) and 247 nM in assay [3].
Consider `Cc1cc(-c2[nH]c3ccc(C4CCN(C(=O)C5CC5)CC4)cc3c2C(C)C)ccn1` [Example 606, cyclopropyl(4-(3-isopropyl-2-(2-methylpyridin-4-yl)-1H-indol-5-yl)piperidin-1-yl)methanone], for which the IC50 was found to be 186 nM in assay [1] (setting [4]), 40900 nM in assay [2] (setting [5]) and 56.5 nM in assay [3].
The corresponding values for `Cc1cc(-c2[nH]c3ccc(C4CCN(C(=O)CCC5CCNCC5)CC4)cc3c2C(C)C)ccn1` [Example 568, 1-(4-(3-isopropyl-2-(2-methylpyridin-4-yl)-1H-indol-5-yl)piperidin-1-yl)-3-(piperidin-4-yl)propan-1-one] are 13.6 nM, 572 nM and 11.9 nM.
With `Cc1cc(-c2[nH]c3ccc(C4CCN(C(=O)CO)CC4)cc3c2C(C)C)cc(C)n1` [Example 116, 1-(4-(2-(2,6-dimethylpyridin-4-yl)-3-isopropyl-1H-indol-5-yl)piperidin-1-yl)-2-hydroxyethan-1-one], the 50% inhibitory concentration (IC50) in assay [1] (TLR8 IC50, HEK-Blue cells overexpressing human TLR8, R848 15.9 μM) turned out to be 127 nM; in assay [2] (TLR9 IC50, HEK-Blue cells overexpressing human TLR9, ODN2006 5 nM), 32200 nM; in assay [3], 3.4 nM.
Take `Cc1cc(-c2[nH]c3ccc(C4CCNCC4)cc3c2C(C)C)c(F)c(C)n1` [Example 51, 2-(3-fluoro-2,6-dimethylpyridin-4-yl)-3-isopropyl-5-(piperidin-4-yl)-1H-indole]: the IC50 in assay [1] (setting [4]) was 2.5 nM; in assay [2] (setting [5]) it was 775 nM; in assay [3], 1 nM.
With `Cc1cc(-c2[nH]c3ccc(C4CCN(Cc5ncco5)CC4)cc3c2C(C)C)cc(C)n1` [Example 449, 2-((4-(2-(2,6-dimethylpyridin-4-yl)-3-isopropyl-1H-indol-5-yl)piperidin-1-yl)methyl)oxazole], the figures for the IC50 in assay [1] (setting [4]), in assay [2] (setting [5]) and in assay [3] were 14.3 nM, 2930 nM and 13.5 nM, respectively.
In the same order, the values of `Cc1cc(-c2[nH]c3ccc(C4CCN(CC(=O)N(C)C5CC5)CC4)cc3c2C(C)C)cc(C)n1` [Example 248, N-cyclopropyl-2-(4-(2-(2,6-dimethylpyridin-4-yl)-3-isopropyl-1H-indol-5-yl)piperidin-1-yl)-N-methylacetamide] are 10.2 nM, 343 nM and 2.3 nM.
For the compound `Cc1cc(-c2[nH]c3ccc(C4CCN(CC(=O)N(C)C)CC4)cc3c2CC(F)F)cc(C)n1` [Example 531, 2-(4-(3-(2,2-difluoroethyl)-2-(2,6-dimethylpyridin-4-yl)-1H-indol-5-yl)piperidin-1-yl)-N,N-dimethylacetamide], the 50% inhibitory concentration (IC50) in assay [1] (setting [4]) amounted to 63.9 nM; in assay [2] (setting [5]), 221 nM; in assay [3], 15.7 nM.
With `CCc1c(-c2ccnc(OC)c2)[nH]c2ccc(C3CCN([C@H]4CCCNCC4)CC3)cc12` [Example 794, (S)-5-(1-(azepan-4-yl)piperidin-4-yl)-3-ethyl-2-(2-methoxypyridin-4-yl)-1H-indole], the IC50 in assay [1] (setting [4]) is 40.9 nM; in assay [2] (setting [5]), 1100 nM; in assay [3] it was 674 nM.
In the case of `CC(=O)NCC(=O)N1CCC(c2ccc3[nH]c(-c4cc(C)nc(C)c4)c(C(C)C)c3c2)CC1` [Example 166, N-(2-(4-(2-(2,6-dimethylpyridin-4-yl)-3-isopropyl-1H-indol-5-yl)piperidin-1-yl)-2-oxoethyl)acetamide], the IC50 was 79.8 nM in assay [1] (setting [4]), more than 50000 nM in assay [2] (setting [5]) and 0.5 nM in assay [3].
For `Cc1cc(-c2[nH]c3ccc(C4CCN(C(=O)Cn5ncnn5)CC4)cc3c2C(C)C)cc(C)n1` [Example 155, 1-(4-(2-(2,6-dimethylpyridin-4-yl)-3-isopropyl-1H-indol-5-yl)piperidin-1-yl)-2-(2H-tetrazol-2-yl) ethan-1-one], the IC50 came out at 31.7 nM in assay [1] (setting [4]), 26000 nM in assay [2] (setting [5]) and 2.7 nM in assay [3].
For the compound `COc1cc(OC)nc(CN2CCC(c3ccc4[nH]c(-c5cc(C)ncc5F)c(C(C)C)c4c3)CC2)n1` [Example 694, 5-(1-((4,6-dimethoxypyrimidin-2-yl)methyl)piperidin-4-yl)-2-(5-fluoro-2-methylpyridin-4-yl)-3-isopropyl-1H-indole], the IC50 was found to be 7.8 nM in assay [1] (setting [4]), 3690 nM in assay [2] (setting [5]) and 20.7 nM in assay [3].
In the case of `CNCCN1CCC(c2ccc3[nH]c(-c4cc(OC)ncc4F)c(C)c3c2)CC1` [Example 756, 2-(4-(2-(5-fluoro-2-methoxypyridin-4-yl)-3-methyl-1H-indol-5-yl)piperidin-1-yl)-N-methylethan-1-amine], the IC50 in assay [1] (setting [4]) was found to be 185 nM; in assay [2] (setting [5]), 3300 nM; in assay [3], 3120 nM.
The corresponding values for `CCc1c(-c2ccnc(OC)c2)[nH]c2ccc(C3CCN(C4CCN(CC(C)C)CC4)CC3)cc12` [Example 780, 3-ethyl-5-(1′-isobutyl-[1,4′-bipiperidin]-4-yl)-2-(2-methoxypyridin-4-yl)-1H-indole] are 81.1 nM, 412 nM and 502 nM.
In the same order, the values of `COc1ncc(CN(C)CC(=O)N2CCC(c3ccc4[nH]c(-c5cc(C)nc(C)c5)c(C(C)C)c4c3)CC2)cn1` [Example 418, 1-(4-(2-(2,6-dimethylpyridin-4-yl)-3-isopropyl-1H-indol-5-yl)piperidin-1-yl)-2-(((2-methoxypyrimidin-5-yl)methyl)(methyl)amino)ethan-1-one] are 30.6 nM, 2050 nM and 3 nM.
In the same order, the values of `Cc1cc(-c2[nH]c3ccc(C4CCN(CCC#N)CC4)cc3c2C(C)C)c(F)cn1` [Example 656, 3-(4-(2-(5-fluoro-2-methylpyridin-4-yl)-3-isopropyl-1H-indol-5-yl)piperidin-1-yl)propanenitrile] are 1.9 nM, more than 50000 nM and 9.3 nM.
On to `Cc1cc(-c2[nH]c3ccc(C4CCN(C5CCOC5)CC4)cc3c2C(C)C)c(F)cn1` (stereo not drawn) [Example 725, 2-(5-fluoro-2-methylpyridin-4-yl)-3-isopropyl-5-(1-(tetrahydrofuran-3-yl)piperidin-4-yl)-1H-indole], for which the IC50 in assay [1] (setting [4]) is 4.5 nM; in assay [2] (setting [5]), 2990 nM; in assay [3], 3 nM.
As to `Cc1cc(-c2[nH]c3ccc(C4CCN(C5CCOC(C)(C)C5)CC4)cc3c2C(C)C)ccn1` (stereo not drawn) [Example 719, 5-(1-(2,2-dimethyltetrahydro-2H-pyran-4-yl)piperidin-4-yl)-3-isopropyl-2-(2-methylpyridin-4-yl)-1H-indole], the IC50 in assay [1] (setting [4]) was determined as 5.2 nM; in assay [2] (setting [5]) it was 638 nM; in assay [3] it was 23.9 nM.
`Cc1cc(-c2[nH]c3ccc(C4CCN(CC(=O)N5CCNC(=O)C5)CC4)cc3c2C(C)C)cc(C)n1` [Example 272, 4-(2-(4-(2-(2,6-dimethylpyridin-4-yl)-3-isopropyl-1H-indol-5-yl)piperidin-1-yl)acetyl)piperazin-2-one]: the 50% inhibitory concentration (IC50) turned out to be 3.1 nM in assay [1] (setting [4]), 46 nM in assay [2] (setting [5]) and 1.2 nM in assay [3].
Take `CC(C)c1c(-c2ccnc(Cl)c2C#N)[nH]c2ccc(C3CCNCC3)cc12` [Example 36, 2-chloro-4-(3-isopropyl-5-(piperidin-4-yl)-1H-indol-2-yl)nicotinonitrile]: the IC50 was determined as 454 nM in assay [1] (setting [4]), 4870 nM in assay [2] (setting [5]) and 1270 nM in assay [3].
Regarding `CCc1c(-c2cc(Cl)ncc2F)[nH]c2ccc(C3CCN(C4CCN(CC(C)C)CC4)CC3)cc12` [Example 760, 2-(2-chloro-5-fluoropyridin-4-yl)-3-ethyl-5-(1′-isobutyl-[1,4′-bipiperidin]-4-yl)-1H-indole], the IC50 was found to be 107 nM in assay [1] (setting [4]), 2390 nM in assay [2] (setting [5]) and 537 nM in assay [3].
In the same order, the values of `Cc1cc(-c2[nH]c3ccc(C4CCN(C5CCOC5)CC4)cc3c2C(C)C)c(C)cn1` (stereo not drawn) [Example 728, 2-(2,5-dimethylpyridin-4-yl)-3-isopropyl-5-(1-(tetrahydrofuran-3-yl)piperidin-4-yl)-1H-indole] are 1.1 nM, 1340 nM and 6.7 nM.
With `Cc1cc(-c2[nH]c3cc(F)c(C4CCNCC4)cc3c2C(C)C)c(F)cn1` [Example 79, 6-fluoro-2-(5-fluoro-2-methylpyridin-4-yl)-3-isopropyl-5-(piperidin-4-yl)-1H-indole], the IC50 stood at 2 nM in assay [1] (setting [4]), 1350 nM in assay [2] (setting [5]) and 1.5 nM in assay [3].
